For 1 compound, AUC results are on record in patent US6423701B1, “Water soluble amine esters of testosterone for intranasal administration” (University of Kentucky, priority 1996, dated 2002).

This series in a line: Nasal absorption of TSDG in rats: plasma levels after intranasal and intravenous administration, HPLC. The format is in vivo. The note with it: male, Sprague-Dawley, rat. On the procedure: Male Sprague-Dawley rats weighing 250-275 gm were used. Animals were fasted overnight before the experiment, but water was given ad libitum. All surgical procedures were performed under sodium pentobarbital anesthesia (40 mg/kg i.p.). An incision was made in the neck, and the trachea was cannulated with a polyethylene tube. A closed tube was inserted through the esophagus to the posterior part of the nasal cavity. The nasopalatine passage was closed with an adhesive agent to prevent drainage of the drug from the nasal cavity to the mouth.
Blood samples were collected from a cannula inserted into the femoral artery. For intravenous administration, the jugular vein was cannulated for administering the dose.
For intravenous administration, the same dose of the drug was injected through the jugular vein.
Blood samples were collected at 0, 5, 10, 20, 30, 40, 60, 90, 120, 150, and 180 minutes. After immediate centrifugation (3000×g for 3 min), the plasma was separated. The animal was sacrificed after the last sample was obtained, and the samples were then analyzed by HPLC, using the method of Hsyu et al. (Pharm. Res. 11:156-159, 1994). Briefly, plasma concentrations of testosterone free base were determined via a HPLC protocol which included solid-phase extraction, separation on a reverse-phase cyano column, and UV detection at 305 nm.

For the compound `C[C@]12CC[C@H]3[C@@H](CCC4=CC(=O)CC[C@@]43C)[C@@H]1CC[C@@H]2O` [TS, 17β-hydroxyandrost-4-en-3-one], the AUC by setting is: (inhaled or intranasal, intranasal, dose 25 mg/kg) 1830 ng·h/mL; (inhaled or intranasal, intranasal, dose 50 mg/kg) 3490 ng·h/mL; (intravenous, dose 25 mg/kg) 1770 ng·h/mL; (intravenous, dose 50 mg/kg) 3780 ng·h/mL.
